# Results: publication PMC8262356, “SLC26A6-selective inhibitor identified in a small-molecule screen blocks fluid absorption in small intestine” (JCI Insight, 2021)
# “And” between values parts separate entries of the source, which are not always exact repeats. Identical values can stand only once.
# Experiments:
# [1] = tested on: mouse distal colonic closed loops; test: Closed distal colonic loop fluid absorption; type: in vivo; conditions: 30 μM luminal
# Experimental: For fluid absorption studies in colon, mice were given free access to 5% dextrose in water but not solid food for 48 hours. Mice were treated with 500 μL mineral oil twice a day rectally (final dose 16 h before surgery) during this period to evacuate the colon. Closed distal colonic loops (length 1.5–2 cm, 1 loop per mouse) were isolated as described previously ([7]). Loops were injected with 100 μL PBS with 30 μM PAT1inh-B01, 10 μM DRAinh-A270, or 10 μM tenapanor (or vehicle). In some experiments, 30 μM PAT1inh-B01 and 10 μM DRAinh-A270 were used together. Colonic loops were removed at 0 and 60 minutes (in separate mice), and loop length and weight were measured to quantify fluid absorption.
# PAT1 (murine slc26a6) = molecular target: T1, PAT1 (murine slc26a6) (Mus musculus, UniProt Q8CIW6); test: PAT1-mediated Cl-/I- exchange, YFP fluorescence quenching in FRT cells; type: cell-based
# T1 construct: host or cells: Fischer rat thyroid (FRT) cells, lentiviral transduction (pLVX-IRES-mCherry-slc26a6), clonal line FRT-YFP-slc26a6
# T1 sequence (Q8CIW6 24-758 limits assumed): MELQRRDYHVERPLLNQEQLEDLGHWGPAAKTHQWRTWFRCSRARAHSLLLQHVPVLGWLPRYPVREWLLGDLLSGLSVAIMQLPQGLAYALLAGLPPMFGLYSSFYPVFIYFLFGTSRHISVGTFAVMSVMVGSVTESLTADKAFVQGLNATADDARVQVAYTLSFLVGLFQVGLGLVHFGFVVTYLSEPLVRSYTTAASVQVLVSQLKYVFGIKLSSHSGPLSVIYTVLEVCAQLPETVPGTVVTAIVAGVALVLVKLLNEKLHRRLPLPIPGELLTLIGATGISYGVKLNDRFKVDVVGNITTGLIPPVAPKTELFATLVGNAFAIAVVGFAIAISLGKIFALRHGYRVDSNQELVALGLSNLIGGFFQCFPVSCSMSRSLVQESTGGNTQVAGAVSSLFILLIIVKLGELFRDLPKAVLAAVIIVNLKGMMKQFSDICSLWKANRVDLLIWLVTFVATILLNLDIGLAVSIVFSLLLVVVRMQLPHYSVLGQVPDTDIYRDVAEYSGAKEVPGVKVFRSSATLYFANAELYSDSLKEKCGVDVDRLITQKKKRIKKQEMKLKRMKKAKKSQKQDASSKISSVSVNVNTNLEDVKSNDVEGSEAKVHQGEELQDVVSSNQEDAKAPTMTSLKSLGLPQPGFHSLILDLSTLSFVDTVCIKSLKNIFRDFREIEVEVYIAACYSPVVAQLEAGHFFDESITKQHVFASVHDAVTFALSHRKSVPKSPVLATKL
# Experimental: A small-molecule screen was developed to identify PAT1 inhibitors utilizing transfected FRT cells expressing PAT1 (murine slc26a6) together with a halide-sensing cytoplasmic YFP (Figure 1A). Adherent cells in a 96-well format were subjected to an inward gradient of I^– to drive exchange of I^– for Cl^– and consequent quenching of the YFP fluorescence signal.
# A collection of approximately 50,000 diverse, drug-like synthetic small molecules (ChemDiv) was screened at a concentration of 25 μM using a Beckman Coulter BioMek FX liquid handling platform with FLUOstar OMEGA plate readers (BMG Labtech). FRT-YFP-slc26a6 cells were plated in 96-well black-walled, clear-bottom plates (Corning Life Sciences) at a density of 20,000 cells/well and cultured for 48 hours until confluent. Cells were washed twice in PBS and incubated for 10 minutes prior to assay in 100 μl PBS containing test compounds. For assay of slc26a6 function, baseline cellular fluorescence was measured for 2 seconds, after which 100 μl NaI-substituted PBS (140 mM NaCl replaced by 140 mM NaI) was added by syringe pump to drive Cl^–/I^– exchange. The initial rate of Cl^–/I^– exchange was determined by single exponential regression of the fluorescence time course. All assay plates contained wells with negative (1% DMSO) and positive (500 μM niflumic acid) controls. For structure-activity relationship studies, analogs of active compounds were purchased from ChemDiv.
# mouse ileal closed loops = test: Closed ileal loop fluid absorption; type: in vivo
# Experimental: For fluid absorption studies in small intestine, mice were given free access to 5% dextrose in water but not solid food for 24 hours before experiments. Closed midjejunal and ileal loops were prepared and isolated as described previously ([29]). Mice were anesthetized with isoflurane, and body temperature was maintained during surgery at 36°C–38°C using a heating pad. A small abdominal incision was made to expose small intestine for isolation of 3–4 closed small intestinal loops (jejunum or ileum, length 2–3 cm) with sutures. Loops were injected with 100 μL PBS (pH 7.4, 137 mM NaCl, 2.7 mM KCl, 8 mM Na2HPO4, 1.8 mM KH2PO4, 1 mM CaCl2, 0.5 mM MgCl2) containing 30 μM PAT1inh-B01, 10 μM DRAinh-A270, or 10 μM tenapanor (MedChemExpress) (or vehicle, 0.1% DMSO in PBS). In some experiments, 30 μM PAT1inh-B01 and 10 μM DRAinh-A270 were used together. In some experiments to rule out effects of sodium-dependent phosphate transport, the loop lumen contained HEPES-buffered saline (pH 7.4, 137 mM NaCl, 4.5 mM KCl, 10 mM HEPES, 1 mM CaCl2, 0.5 mM MgCl2). The abdominal incision was closed with sutures, and mice were allowed to recover from anesthesia. Intestinal loops were removed at 0 and 30 minutes (in separate mice), and loop length and weight were measured to quantify fluid absorption. In parallel experiments, CF mice were used and loop studies were done as described above. In some experiments, loop fluid was emptied with a syringe, and pH was measured immediately using AB15 pH meter after brief centrifugation at 2000 g for 5 minutes at 4°C.
compound,measurement,setting,value
Cc1c(Br)c(C(F)(F)F)nn1CC(=O)N1CCc2nc3cc(-c4ccccc4)[nH]n3c(=O)c2C1 [PAT1inh-B01],effect on colonic fluid absorption (loop weight-to-length ratio),[1],did not inhibit
same,time to 50% inhibition of PAT1-mediated Cl-/I- exchange,PAT1 (murine slc26a6); 1 μM,approximately 3 minutes
same,IC50,"PAT1 (murine slc26a6); FRT cells expressing PAT1 and YFP, read-out: IC50, inhibition of PAT1-mediated Cl-/I- exchange",~350 nM and 350 nM
same,inhibition at 25 µM,"PAT1 (murine slc26a6); FRT, 25 μM, primary screen",> 75%
same,reversibility of inhibition following washout,PAT1 (murine slc26a6); data not shown,fully reversible
same,effect on ileal fluid absorption (loop weight-to-length ratio),"mouse ileal closed loops; 30 μM luminal, 30 minutes, PBS",fully blocked
same,effect on increase of ileal loop fluid pH,"mouse ileal closed loops; 30 minutes after injection of PBS (pH 7.4), control pH greater than 8.0",prevented
same,effect on ileal fluid absorption in absence of luminal phosphate,mouse ileal closed loops; HEPES-buffered saline,effectively blocked
same,block of fluid absorption in ileal loops,mouse ileal closed loops; ileal loops (abstract),> 80%
